Assay [1] deals with EGFP-tagged human oxytocin receptor (human) (UniProt P30559).
For assay [2] the target is unchanged. The source holds these as a separate data set.
The target in assay [3] is EGFP-tagged human vasopressin V1b receptor (human) (UniProt P47901).
The target of assay [4] is EGFP-tagged human vasopressin V1a receptor (human) (UniProt P37288).
Assay [5] deals with EGFP-tagged human vasopressin V2 receptor (human) (UniProt P30518).
For assay [6] the target is unchanged. This is another data set of the same source.
Assay [7] has as its target EGFP-tagged human vasopressin V1b receptor (human) (UniProt P47901). This is another data set of the same source.
For assay [8], the target named is T1, human V1bR (Homo sapiens, UniProt P47901).
T1 sequence (P47901 1-424): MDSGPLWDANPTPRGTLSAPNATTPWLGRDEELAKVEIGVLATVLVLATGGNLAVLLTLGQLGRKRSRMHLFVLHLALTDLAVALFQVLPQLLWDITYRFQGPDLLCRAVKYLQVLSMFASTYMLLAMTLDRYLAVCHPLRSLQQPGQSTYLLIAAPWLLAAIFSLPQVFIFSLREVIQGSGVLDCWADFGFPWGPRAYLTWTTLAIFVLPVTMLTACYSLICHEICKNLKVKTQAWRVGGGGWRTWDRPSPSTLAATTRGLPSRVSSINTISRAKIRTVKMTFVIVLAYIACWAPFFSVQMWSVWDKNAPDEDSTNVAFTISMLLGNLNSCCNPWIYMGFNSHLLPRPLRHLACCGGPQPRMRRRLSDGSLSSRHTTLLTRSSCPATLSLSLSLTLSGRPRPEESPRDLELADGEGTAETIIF
In words: β-arrestin-2 recruitment BRET at V1bR. The format is cell-based. More on the design: expressed in transfected cells; host or cells: HEK293. As to conditions: for EC50: β-arrestin-2 recruitment. For orientation: Arrestin recruitment assays detect the binding of arrestin to an activated receptor.

For assay [9], the system named is V2R-mediated ERK 1/2 phosphorylation. In words: Immunoblotting for ERK 1/2 phosphorylation in HEK293 cells expressing V2R. The format is cell-based, human. The following applies: 1 µM peptide. On the procedure: Immunoblotting was performed as described previously. Briefly, following an overnight incubation and 16 h starvation HEK293 cells transiently expressing human V2R were treated with 1 µM I8-arachnotocin or 1 µM VP prepared in DMEM. Cells were incubated with peptide ligands at 37 °C for indicated periods and 1 mL of chilled 1x phosphate-buffered saline were used to terminate the incubation. After freeze-thaw cycle in liquid nitrogen cells were solubilized in 100 µl of lysis buffer (50 mM HEPES, 0.5% NP-40 substitute, 50 mM glycerol-2-phosphate, 250 mM NaCl, 5 mM EDTA, 2 mM imidazole, 1 mM Na3VO4, 1 mM hepta-molybdate, pH adjusted to 7.0 with NaOH), freshly added 1 mM PMSF, one cOmplete Mini EDTA-free tablet (Roche) and one PhosSTOP tablet (Roche) and then centrifuged at 10,000 × g for 10 min. The bicinchoninic acid assay (Micro-BCA kit, Pierce) was used to measure total protein content. Phosphorylated and total ERK 1/2 were detected by immunoblotting on the same membrane using the same exposure method with an anti-phospho-p44/42 MAPK antibody (ERK 1/2) (1:1,000; Cell Signaling Technology) and an anti-p44/42 MAPK (ERK 1/2) (1:1,000; Cell Signaling Technology), respectively. Detection and quantification of resulting bands were executed by secondary antibodies (Donkey anti rabbit 680RD and […]) and Odyssey Clx (LiCor Biosciences) infrared fluorescent imaging system, respectively.

The target of assay [10] is T2, human V2R (Homo sapiens, UniProt P30518). In words: cAMP accumulation (LANCE Ultra cAMP), HEK293 cells expressing V2R.
Assay [11] concerns the target T3, human V1aR (Homo sapiens, UniProt P37288). Nature of the assay: β-arrestin-2 recruitment BRET at V1aR.
Assay [12] concerns the target T1, human V1bR. Nature of the assay: IP1 accumulation (IP-One Gq assay), HEK293 cells expressing V1bR.
Assay [13] addresses T3, human V1aR. In words: Antagonist screen and Schild regression analysis (IP1) at V1aR.
In assay [14] the target is T2, human V2R. Nature of the assay: β-arrestin-1 recruitment BRET at V2R.
Assay [15] deals with T3, human V1aR. Nature of the assay: IP1 accumulation (IP-One Gq assay), HEK293 cells expressing V1aR. As to conditions: concentrations up to 10 µM.
The target of assay [16] is T4, human OTR (Homo sapiens, UniProt P30559).
T4 sequence (P30559 1-389): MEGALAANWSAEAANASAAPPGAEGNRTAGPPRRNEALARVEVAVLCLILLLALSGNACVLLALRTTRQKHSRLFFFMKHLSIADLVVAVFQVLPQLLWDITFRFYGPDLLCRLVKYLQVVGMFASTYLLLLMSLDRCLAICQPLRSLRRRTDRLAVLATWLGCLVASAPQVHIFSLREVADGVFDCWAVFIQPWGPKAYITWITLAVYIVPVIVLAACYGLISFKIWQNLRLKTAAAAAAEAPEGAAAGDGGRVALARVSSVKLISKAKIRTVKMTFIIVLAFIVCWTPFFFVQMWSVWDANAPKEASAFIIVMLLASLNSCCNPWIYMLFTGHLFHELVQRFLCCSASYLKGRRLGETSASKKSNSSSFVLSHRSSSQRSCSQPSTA
Nature of the assay: β-arrestin-2 recruitment BRET at OTR.

Assay [17] deals with T4, human OTR. Nature of the assay: IP1 accumulation (IP-One Gq assay), HEK293 cells expressing OTR.
Assay [18] deals with T2, human V2R. Nature of the assay: β-arrestin-2 recruitment BRET at V2R. The format is cell-based. More on the design: expressed in transfected cells; host or cells: HEK293.

Several values for one entry are separate records, joined by “and”; a condition that tells them apart may be missing. Equal values may be shown once. Bridge positions count the residues as written; N and C are the ends. Peptide text beside a SMILES is read from it. Some results are limits rather than exact numbers.

The molecule “oxytocin (from UniProt P01178 20-28) (peptide)” displayed an IP1 accumulation (Gαq) in HEK293 cells expressing human OTR; EC50 in assay [1] of 12 nM. In assay [2], the β-arrestin-2 recruitment to OTR (BRET) against OT concentration; EC50 is 170 nM.

In [3], I8-arachnotocin (peptide) displayed an IP1 accumulation (Gαq) in HEK293 cells expressing human V1bR; EC50 of 1200 nM and an IP1 accumulation (Gαq) in HEK293 cells expressing human V1bR; Emax relative to VP of 104%. Moreover, in assay [4], the Schild regression of VP-induced IP1 accumulation at human V1aR in the presence of 1, 3 and 10 µM I8-arachnotocin (blocks VP at V1aR); pA2 was found to be 6.25; the Schild regression of VP-induced IP1 accumulation at human V1aR in the presence of 1, 3 and 10 µM I8-arachnotocin (blocks VP at V1aR); pA2 as a concentration is 0.558 µM. Further, in assay [1], the IP1 accumulation (Gαq) in HEK293 cells expressing human OTR; EC50 came to 790 nM and the IP1 accumulation (Gαq) in HEK293 cells expressing human OTR; Emax relative to OT was found to be 62%. In [5], this molecule had a cAMP accumulation (Gαs) in HEK293 cells expressing human V2R; EC50 of 34 nM and a cAMP accumulation (Gαs) in HEK293 cells expressing human V2R; Emax relative to VP of 99%. In assay [6], this molecule gave a non-β-arrestin-dependent signaling at V2R as restated in the discussion; EC50 of 50 nM and a β-arrestin-dependent signaling (β-arrestin recruitment) at V2R as restated in the discussion; EC50 greater than 100000 nM. In assay [7], this molecule registered a β-arrestin-2 recruitment to V1bR (BRET) against I8-arachnotocin concentration; EC50 of 1200 nM. The β-arrestin-2 recruitment to OTR (BRET) against I8-arachnotocin concentration; EC50 in assay [2] is 5700 nM.

In the case of `CC[C@H](C)[C@@H]1NC(=O)[C@H](Cc2ccccc2)NC(=O)[C@@H](N)CSSC[C@@H](C(=O)N2CCC[C@H]2C(=O)N[C@H](C(=O)NCC(N)=O)[C@@H](C)CC)NC(=O)[C@H](CC(N)=O)NC(=O)[C@H]([C@@H](C)O)NC1=O` [I8-arachnotocin] (H-CFITNCPIG-NH2; disulfide 1-6; N-terminus assumed), the Emax (usually the maximal effect, on the per cent scale that the assay sets) on human V1bR [8] was 65 ± 5%; at human V2R [10] (HEK293), 99 ± 3%; at human V1bR [12] (HEK293) it was 104 ± 8%; at human OTR [16], 32 ± 5%; at human OTR [17] (HEK293), 62 ± 6%. Moreover, the “bias (method of Kenakin) compared to VP” value at human V1bR [8] (V1bR, G protein vs β-arrestin-2) is listed as “did not detect differences”. Moreover, the EC50 on human V1bR [8] (V1bR, read-out: EC50) is 1200 nM; on human V1bR [8] (V1bR, read-out: pEC50 (as logEC50 ± SEM) (converted)), 1200 nM; on human V2R [10] (EC50, cAMP accumulation, G protein-mediated, V2R), 34 nM; at human V2R [10] (pEC50 (as logEC50 ± SEM), cAMP accumulation, V2R) it was 33.9 nM; at human V1bR [12] (EC50, IP1 accumulation, G protein-mediated, V1bR) it was 1200 nM; at human V1bR [12] (pEC50 (as logEC50 ± SEM), IP1 accumulation, V1bR), 1170 nM. Also, the EC50 is 5700 nM at human OTR [16] (EC50, β-arrestin-2 recruitment, OTR); 5750 nM at human OTR [16] (pEC50 (as logEC50 ± SEM), β-arrestin-2 recruitment, OTR); 790 nM on human OTR [17] (EC50, IP1 accumulation, G protein-mediated, OTR); 776 nM on human OTR [17] (pEC50 (as logEC50 ± SEM), IP1 accumulation, OTR); greater than 100000 nM on human V2R [18] (β-arrestin-1 or -2 recruitment, read-out: EC50 of β-arrestin-dependent signaling pathway). Moreover, in assay [9] (1 min to 2 h), the “course of ERK 1/2 phosphorylation after the peak (late phase, 30–120 min)” value was “decreased over time”. Moreover, the “time of peak ERK 1/2 phosphorylation” value in [9] (HEK293 expressing human V2R) was 5 min. Further, the type of agonism entry at human V2R [10] (V2R, second messenger signaling) was “full agonist”; at human V1bR [12] (V1bR, second messenger signaling), “full agonist”; at human OTR [17] (OTR, second messenger signaling) it was “partial agonist”. Further, the “fold less potent compared to the endogenous peptide” value at human V2R [10] (V2R, vs VP) was 5,000 fold; on human V1bR [12] (V1bR, vs VP), 750 fold; on human OTR [17] (OTR, vs OT), 65 fold. For the same molecule, the β-arrestin-2 recruitment kinetics entry was “absent” at human V1aR [11] (10 µM ligand); “absent” on human OTR [16] (OTR, 10 µM ligand); “absent” at human V2R [18] (10 µM ligand). In addition, the β-arrestin-2 recruitment entry at human V1aR [11] (concentration up to 100 µM) was “no I8-arachnotocin-induced β-arrestin-2 recruitment was detected”; on human V2R [18] (up to a concentration of 100 µM) it was “did not recruit β-arrestin-2”. Further, the “pA2 expressed as concentration” value at human V1aR [13] (Schild regression at V1aR) was 558 nM and ~ 558 nM. Further, the pA2 – broadly, the negative logarithm of the molar antagonist concentration that doubles the agonist concentration needed for the same response – at human V1aR [13] (Schild regression, VP curves in presence of 1, 3, 10 µM I8-arachnotocin) was 6.25 and 6.253. Also, the Schild regression slope at human V1aR [13] (V1aR, VP as agonist) was 1.28 ± 0.02. Further, the type of antagonism entry at human V1aR [13] (V1aR, dextral shift without affecting Emax) is “competitive antagonist”. Also, at human V1aR [13] (VP (0.55 nM) in the presence of 1 and 10 µM I8-arachnotocin), the “IP1 levels in antagonist screen” value was “lower IP1 levels than VP alone”. The β-arrestin-1 recruitment kinetics result at human V2R [14] (10 µM ligand, time-dependent) is “failed to recruit β-arrestin-1”. For the same molecule, the β-arrestin-1 recruitment result on human V2R [14] (up to 100 µM) is “no β-arrestin-1 recruitment”. The “activation of V1aR” value on human V1aR [15] is listed as “No activation”. In addition, the “bias (method of Kenakin) compared to OT” value at human OTR [16] (OTR, G protein vs β-arrestin-2) was “did not detect differences”. At human V2R [18], the “difference non-β-arrestin-dependent vs β-arrestin-dependent EC50” value is given as > 2,000 fold.
